We go through 20 compounds from ChEMBL document CHEMBL1133163, “AMP deaminase inhibitors. 4. Further N3-substituted coformycin aglycon analogues: N3-alkylmalonates as ribose 5'-monophosphate mimetics” (J Med Chem, 2000).

In one experiment the target is T1, Adenosine deaminase (Bos taurus, UniProt P56658).
T1 sequence (P56658 whole entry): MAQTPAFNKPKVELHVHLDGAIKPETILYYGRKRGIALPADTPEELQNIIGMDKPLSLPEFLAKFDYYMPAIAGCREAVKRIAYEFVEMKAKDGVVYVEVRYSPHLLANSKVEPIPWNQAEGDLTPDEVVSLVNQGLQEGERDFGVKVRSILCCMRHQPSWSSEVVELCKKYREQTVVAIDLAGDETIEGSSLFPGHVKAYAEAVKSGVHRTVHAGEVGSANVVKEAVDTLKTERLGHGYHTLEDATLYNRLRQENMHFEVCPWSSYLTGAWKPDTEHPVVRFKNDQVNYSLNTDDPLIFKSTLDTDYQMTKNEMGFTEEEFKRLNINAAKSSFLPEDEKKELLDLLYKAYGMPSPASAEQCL
The experiment in a line: Inhibitory activity against calf intestinal Adenosine deaminase (ADA).

A further experiment addresses T2, AMP deaminase 3 (Homo sapiens, UniProt Q01432).
T2 sequence (Q01432 whole entry): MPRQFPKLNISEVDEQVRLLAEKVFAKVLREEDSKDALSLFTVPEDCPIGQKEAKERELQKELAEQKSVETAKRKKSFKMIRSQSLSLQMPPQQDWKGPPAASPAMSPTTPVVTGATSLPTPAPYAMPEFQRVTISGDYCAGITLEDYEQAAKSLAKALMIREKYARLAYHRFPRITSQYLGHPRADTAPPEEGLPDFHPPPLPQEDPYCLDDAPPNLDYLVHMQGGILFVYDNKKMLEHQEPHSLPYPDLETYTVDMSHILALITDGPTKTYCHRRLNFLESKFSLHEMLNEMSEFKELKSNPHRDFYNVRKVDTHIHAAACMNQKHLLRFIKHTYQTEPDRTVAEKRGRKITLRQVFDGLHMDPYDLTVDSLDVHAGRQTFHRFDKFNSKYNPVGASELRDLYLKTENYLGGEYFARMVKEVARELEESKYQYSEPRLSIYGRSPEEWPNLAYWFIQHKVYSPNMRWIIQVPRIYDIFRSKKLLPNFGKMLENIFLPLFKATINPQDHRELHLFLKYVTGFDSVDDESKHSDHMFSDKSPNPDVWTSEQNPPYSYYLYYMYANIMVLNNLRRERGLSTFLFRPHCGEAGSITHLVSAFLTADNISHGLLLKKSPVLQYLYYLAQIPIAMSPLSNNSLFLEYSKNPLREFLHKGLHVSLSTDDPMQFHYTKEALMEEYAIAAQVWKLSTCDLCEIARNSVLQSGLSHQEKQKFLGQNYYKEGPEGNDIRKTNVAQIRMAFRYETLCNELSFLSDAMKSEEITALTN
The experiment in a line: Inhibitory activity against porcine heart or recombinant human E-type AMPDA.

One may read the Ki as the dissociation constant of the complex between target and ligand, obtained from inhibition or displacement.

As for `O=C(O)C(CCCCn1cnc2c1NC=NCC2O)(Cc1ccccc1C(F)(F)F)C(=O)O` (centres undefined), the figures for the Ki at Adenosine deaminase and on AMP deaminase 3 were over 7.5 µM and 0.041 µM, respectively. As to `O=C(O)C(CCCCn1cnc2c1N=CNCC2O)C(=O)OCc1ccccc1` (centres undefined), the Ki was over 7.5 µM at Adenosine deaminase and 0.36 µM at AMP deaminase 3. Taken in the same sequence, the figures for `CCOC(=O)C(CCCCn1cnc2c1N=CNCC2O)(Cc1ccccc1C(F)(F)F)C(=O)OCC` (centres undefined) were over 7.5 µM and 0.36 µM.

`O=C(OCc1ccccc1)C(CCCCn1cnc2c1N=CNCC2O)(Cc1ccccc1C(F)(F)F)C(=O)OCc1ccccc1` (centres undefined): the results for the Ki at Adenosine deaminase and at AMP deaminase 3 were over 7.5 µM and 0.25 µM, respectively. Taken in the same sequence, the figures for `CC(CCCCn1cnc2c1NC=NCC2O)(C(=O)OCc1ccccc1)C(=O)OCc1ccccc1` (centres undefined) were over 7.5 µM and 5.2 µM. Taken in the same sequence, the figures for `O=C(O)C(CCCCn1cnc2c1NC=NCC2O)(Cc1cccc(C(F)(F)F)c1)C(=O)O` (centres undefined) were over 7.5 µM and 0.029 µM. For `CC(CCCCn1cnc2c1NC=NCC2O)(Cc1cccc(C(F)(F)F)c1)C(=O)O` (centres undefined), in that order: over 7.5 µM and 1.2 µM. For the compound `CC(CCCCn1cnc2c1NC=NCC2O)(C(N)=O)C(=O)O` (centres undefined), the Ki at Adenosine deaminase is over 7.5 µM; at AMP deaminase 3, 7.8 µM. For the compound `O=C(O)CCCCCn1cnc2c1N=CNCC2O` (centres undefined), the Ki on AMP deaminase 3 was 4.2 µM. Consider `CCOC(=O)C(C)(CCCCn1cnc2c1NC=NCC2O)C(=O)OCC` (centres undefined), for which the Ki at Adenosine deaminase was over 500 µM; at AMP deaminase 3, 44.8 µM. With `CC(CCCCn1cnc2c1NC=NCC2O)(C(=O)O)C(=O)OCc1ccccc1` (centres undefined), the inhibition constant Ki at Adenosine deaminase is over 7.5 µM; at AMP deaminase 3, 0.9 µM. Taken in the same sequence, the figures for `O=C(O)C(CCCCn1cnc2c1NC=NCC2O)C(=O)O` (centres undefined) were over 7.5 µM and 5.1 µM. Turning to `O=C(O)C(CCCCn1cnc2c1N=CNCC2O)(Cc1ccccc1)C(=O)O` (centres undefined), the Ki on Adenosine deaminase is over 7.5 µM; at AMP deaminase 3, 0.17 µM. Turning to `CCOC(=O)C(CCCCn1cnc2c1N=CNCC2O)(Cc1ccccc1)C(=O)OCC` (centres undefined), the Ki on Adenosine deaminase is over 7.5 µM; on AMP deaminase 3 it was 2.6 µM. Take `CC(CCCCn1cnc2c1NC=NCC2O)(C(=O)O)C(=O)NC1CCCCC1` (centres undefined): the Ki is over 7.5 µM at Adenosine deaminase and 5.2 µM on AMP deaminase 3. For `O=C(O)C(CCCCn1cnc2c1N=CNCC2O)C(=O)NCc1ccccc1` (centres undefined), the Ki at Adenosine deaminase was over 7.5 µM; at AMP deaminase 3 it was 2.4 µM. For `O=C(O)C(CCCCn1cnc2c1N=CNCC2O)C(=O)NCc1ccc(Cl)cc1` (centres undefined), in that order: over 7.5 µM and 1.3 µM. `CC(CCCCn1cnc2c1N=CNCC2O)(C(=O)O)C(=O)NCCc1ccccc1` (centres undefined): the results for the Ki at Adenosine deaminase and at AMP deaminase 3 were over 7.5 µM and 2.1 µM, respectively. For `CC(CCCCn1cnc2c1NC=NCC2O)(C(=O)O)C(=O)O` (centres undefined), in that order: over 7.5 µM and 6 µM. Turning to `O=C(O)C(CCCCn1cnc2c1NC=NCC2O)(Cc1ccc(C(F)(F)F)cc1)C(=O)O` (centres undefined), the Ki is over 7.5 µM at Adenosine deaminase and 0.04 µM at AMP deaminase 3.
